Experiment in all cases: NCI-60 cell line screen, 48 h
Assay [1] relates to MALME-3M melanoma.
Assay [2] concerns LOX IMVI melanoma.
The subject of assay [3] is BT-549 breast.
The test system of assay [4] is U251 CNS.
In assay [5] the test system is UACC-257 melanoma.
Assay [6] has as its system SK-MEL-2 melanoma.
Assay [7] has as its system HS 578T breast.
Assay [8] has as its system OVCAR-4 ovarian.
Assay [9] relates to K-562 leukemia.
Assay [10] has as its system SNB-19 CNS.
Assay [11] relates to SK-MEL-28 melanoma.
The test system of assay [12] is SK-OV-3 ovarian.
The subject of assay [13] is NCI-H226 lung.
For assay [14], the system named is CCRF-CEM leukemia.

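1) Cells in 96-well plates. 2) Compound, 48 h, 5 concentrations. 3) Linear interpolation between surrounding doses. 4) Unreached endpoint = highest concentration. TGI is the concentration that stops growth completely.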 Where a SMILES comes first, the peptide text is derived from it. [ ]: non-standard residue; d: D form. The star is where a group is joined. Phe(4-NO2) = N[CH](Cc1ccc([N+](=O)[O-])cc1)C(=O)O; Cbz = O=C(OCc1ccccc1)*

For `CSCCCNC(=O)c1csc(-c2csc(CCNC(=O)CNC(=O)OC(C)(C)C)n2)n1`, the TGI in assay [1], in assay [2], in assay [3], in assay [4], in [5] and in assay [6] was above 100 µM each time. In addition, the TGI in assay [7], in assay [8], in [9], in assay [10], in [11] and in assay [12] was above 100 µM each time. Further, the TGI in assay [13] and in [14] was above 100 µM in each case.
As for `O=C(O)C(C1NCCS1)N1C(=O)c2ccccc2C1=O` (centres undefined), the TGI in [1], in [2], in [3], in assay [4], in assay [5] and in [6] was above 100 µM each time. Besides, the TGI in [7], in assay [8], in assay [9], in assay [10], in [11] and in assay [12] was above 100 µM each time. The TGI in assay [13] and in assay [14] was above 100 µM in each case.
On to `Clc1nc(NC23CC4CC(CC(C4)C2)C3)nc(NC23CC4CC(CC(C4)C2)C3)n1`, for which the TGI in assay [1] was above 100 µM; in assay [2] it was above 100 µM; in assay [3], above 100 µM; in assay [4], above 69 µM; in assay [5], above 100 µM; in assay [6], 57.6 µM. For the same compound, the TGI is above 100 µM in [7]; above 100 µM in assay [8]; 47 µM in assay [9]; above 100 µM in [10]; above 100 µM in [11]; above 100 µM in assay [12]. Moreover, the values for the TGI in assay [13] and in [14] were above 100 µM and above 90.8 µM, respectively.
Consider `O=C(Cn1c(C(=O)/C=C/c2ccc(Cl)c(Cl)c2)nc2ccccc21)c1ccccc1`, for which the TGI in assay [1] was 86.2 µM; in assay [2], 39.1 µM; in assay [3], 99.3 µM; in assay [4] it was above 100 µM; in assay [5] it was above 100 µM; in assay [6], 47.1 µM. Besides, the TGI in assay [7] was 56.1 µM; in assay [8], 73.2 µM; in assay [9], above 100 µM; in [10], 86.1 µM; in assay [11] it was above 100 µM; in [12] it was above 100 µM. Besides, the values for the TGI in assay [13] and in assay [14] were above 100 µM and 33.3 µM, respectively.
Regarding `COc1ccc(-c2c(C#N)c(N)nc(Sc3ccccc3N)c2C#N)cc1`, the TGI in assay [1] is 42.4 µM; in assay [2] it was above 100 µM; in assay [3], above 100 µM; in assay [4], 61 µM; in assay [5], above 100 µM; in assay [6] it was 39.7 µM. Also, the TGI is 45.3 µM in assay [7]; above 100 µM in assay [8]; above 100 µM in assay [9]; above 55.5 µM in assay [10]; above 100 µM in [11]; 32.6 µM in assay [12]. Further, the TGI in [13] and in [14] was above 100 µM each time.
In the case of `COc1cccc(-c2nc(N)c(C#N)c3c2CCS(=O)(=O)c2ccc(C)cc2-3)c1`, the TGI in assay [1], in assay [2], in assay [3], in [4], in [5] and in assay [6] was above 100 µM in each case. Moreover, the TGI in assay [7] was 48 µM; in assay [8], above 100 µM; in assay [9] it was 11 µM; in assay [10] it was above 100 µM; in [11], above 100 µM; in [12], above 100 µM. The TGI was above 100 µM in [13] and 65.1 µM in assay [14].
`CCc1n[nH]c(=O)n1N`: the TGI in assay [1], in [2], in [3], in assay [4], in assay [5] and in assay [6] was above 100 µM throughout. In addition, the TGI in assay [7], in assay [8], in assay [9], in assay [10], in assay [11] and in assay [12] was above 100 µM throughout. The TGI in assay [13] and in assay [14] was above 100 µM in each case.
`O=[N+]([O-])/C(C(Cl)=C(Cl)Cl)=C(\NCc1ccccc1)Sc1ccccc1`: the TGI in assay [1] is 33.3 µM; in assay [2], 26.6 µM; in [3], 38.7 µM; in assay [4], above 100 µM; in [5] it was above 100 µM; in assay [6] it was 84.7 µM. In addition, the TGI is 36 µM in assay [7]; 75.4 µM in assay [8]; above 100 µM in assay [9]; above 100 µM in assay [10]; 36.8 µM in assay [11]; above 100 µM in assay [12]. Besides, the TGI in assay [13] was 98.3 µM; in assay [14], above 100 µM.
`CCOC(=O)CCC(NC(=O)OCc1ccccc1)C(=O)NC(CCC(=O)OCC)C(=O)NC(CCC(=O)OCC)C(=O)NC(CCC(=O)OCC)C(=O)NC(CCC(=O)OCC)C(=O)NC(Cc1ccc([N+](=O)[O-])cc1)C(=O)NC(CCC(=O)OCC)C(=O)NC(CCC(=O)OCC)C(=O)NC(CCC(=O)OCC)C(=O)NC(CCC(=O)OCC)C(=O)NC(CCC(=O)OCC)C(=O)OCC` (centres undefined) (Cbz-E(OEt)E(OEt)E(OEt)E(OEt)E(OEt)[Phe(4-NO2)]E(OEt)E(OEt)E(OEt)E(OEt)E(OEt)-OEt; configuration not given here): the TGI in [1], in assay [2], in assay [3], in assay [4], in assay [6] and in [7] was above 50 µM each time. Moreover, the TGI in [8], in [9], in assay [10], in [11], in [12] and in assay [13] was above 50 µM each time. Besides, in assay [14], the TGI is above 50 µM.
With `Nc1nc(N)c2ncn(Cc3ccccc3CO)c2n1`, the TGI in [1], in assay [2], in assay [3], in [4], in assay [5] and in [6] was above 100 µM in each case. Further, the TGI in [7], in assay [8], in [9], in [10], in [11] and in [12] was above 100 µM each time. Besides, the TGI in assay [13] and in [14] was above 100 µM throughout.

For the origin of these results see PubChem BioAssay (NCI).
